Data set [1] relates to progesterone receptor (PR). Briefly: Progesterone receptor immunohistochemistry in BG1 tumor explants. It is filed as in vivo, mice. As to conditions: treatment alone vs control; BG1 tumors. The source says: (§1) Tumor explants were resected at necropsy, fixed in 70% ethanol, embedded in paraffin, and immunostained using a primary monoclonal antibody for human progesterone receptor (PR) (NCL-PGR, Novocastra, Newcastle-upon-Tyne, UK). Staining methods included antigen-retrieval with citrate buffer (pH 6.0), biotinylated rabbit anti-mouse Fc antibody as a linking reagent, alkaline phosphatase-conjugated streptavidin as the label, and Vector Red as the chromogen (Vector Laboratories, Burlingame, Calif.). Cell staining was quantified by a computer-assisted counting technique, using a grid filter to select cells for counting (Darvill et al., supra; Burow et al., supra). At least two microscopic fields were randomly selected for each tumor and 200 cells were counted at 40× magnification. Numbers of positively stained cells were expressed as a percentage of the total number examined. All measurements were made blinded to treatment group.
(§2) Progesterone receptor expression is an estrogen-sensitive marker driven by ER transactivation. In this study we used PR immunostaining to evaluate (a) whether glyceollin treatment alone was stimulating the ER as an agonist and (b) whether glyceollin treatment with estradiol (E2) was antagonizing ER activation.

The subject of data set [2] is progesterone receptor (PR). Nature of the data set: Progesterone receptor immunohistochemistry in MCF-7 tumor explants. It is filed as in vivo, mice. The following applies: treatment alone vs control; MCF-7 tumors.
Text: as §1, §2

In data set [3] the test system is MCF-7 breast carcinoma cells. Nature of the data set: MCF-7 xenograft tumor growth in ovariectomized nu/nu mice. It counts as in vivo. As to conditions: estradiol pellet alone; day 20; mean±SEM. How it is done:
(§3) Cages, bedding, food, and water were autoclaved before use. […] Tumor size was measured every two days using calipers.
(§4) The in vivo effects of glyceollins on tumor growth formation were determined. MCF-7 or BG-1 cells were implanted into the mammary fat pad of female ovariectomized nude mice. Mice were divided into two groups: those animals implanted s.c. with estradiol pellets and those without. Tumors were implanted using Matrigel (reduced factor) to enhance tumor incidence and promote tumor growth in the presence and absence of estrogen. Glyceollins (or vehicle) were injected daily for 20 days. Measurable tumors were observed on Day 8 for both MCF-7 cells (FIG. 3) and BG-1 cells (FIG. 4). […] Estrogen stimulated the formation of rapidly growing tumors in both MCF-7 and BG-1 implanted mice, reaching a maximal size of 3074±843 mm^3 in MCF-7 and 3836±756 mm^3 in BG-1 implanted animals by day 20 of treatment. In the negative control animals (without estrogen pellets or glyceollins), tumor incidence occurred on […] and tumors grew slowly with a maximal size of 899±24 mm^3 for MCF-7 cells and 976±42 mm^3 for BG-1 cells on day 20 of treatment. […]
(§5) Data Analysis: Data for MCF-7N and BG-1 tumor size were analyzed separately using repeated measures two-way ANOVA with treatment and time as independent factors (SigmaStat 3.1). […]

The subject of data set [4] is BG-1 ovarian carcinoma cells. Nature of the data set: BG-1 xenograft tumor growth in ovariectomized nu/nu mice. It is filed as in vivo. As to conditions: estradiol pellet alone; day 20; mean±SEM. How it is done:
as §3, §4, §5

Another data set has as its system Mouse uteri. Nature of the data set: Uterine weight and morphology (uterotrophic assay) in nu/nu mice.
Data set [5] has as its system MCF-7 breast carcinoma cell. Nature of the data set: In vitro MCF-7 colony (clonogenicity) assay. It is filed as cell-based, human. The following applies: estrogen treatment alone. How it is done:
The MCF-7N cell variant is a subclone of MCF-7 cells from the American Type Culture Collection (Manassas, Va.) that was generously provided by Louise Nutter (University of Minnesota, Minneapolis, Minn.) and has been previously described (Graham et al., supra). The BG-1 cell line has been previously described. MCF-7 and BG-1 cells were grown in Dulbecco's modified minimal medium (pH 7.4; Life Technologies, Inc., Grand Island, N.Y.) supplemented with 10% fetal bovine serum (Hyclone, Salt Lake City, Utah). For studies with estrogen, the cells were cultured in medium supplemented with 5% charcoal-stripped fetal bovine serum. The cells were incubated at 37° C. in an atmosphere of 5% CO2 and air.
MCF-7 cells are plated at 10^3/well in 6 well Cluster dishes, and incubated overnight. Cells are cultured and treated in DMEM without phenol red; phenol red interacts with estrogen receptors. Treatment and control plates were incubated at 37° C., 5% CO2. Plates were observed periodically. When colonies were of a size of 50 cells or more, at Day 14, cells were fixed with glutaraldehyde for 30 min at 37° C., washed, and stained with Crystal violet (0.4%) for 1 hr. Colonies were counted manually. This method is used to study the effects of chemical or physical agents on cell survival and proliferation; 1 colony=1 cell. […]

Take `C[C@]12CC[C@@H]3c4ccc(O)cc4CC[C@H]3[C@@H]1CC[C@@H]2O` [Glyceollin E2, 17β-estradiol]: the PR expression entry in data set [1] and in data set [2] was “significantly increased PR expression” in each case. Moreover, the “tumor size (maximal)” value is 3074±843 mm^3 in data set [3] and 3836±756 mm^3 in data set [4]. Moreover, the uterine histology result with Mouse uteri (H&E-stained uteri, treatment alone) was “markedly larger with epithelial pseudostratification, stromal edema and hyperplasia, and increased numbers of endometrial glands”. Further, in the data set with Mouse uteri (treatment alone vs control), the “Uterine area, uterine diameter, and epithelial height” value is reported as “significantly increased”. Besides, the colony formation result in data set [5] is recorded as “enhanced colony formation”.
As to `CC/C(=C(\c1ccccc1)c1ccc(OCCN(C)C)cc1)c1ccccc1` [tamoxifen], in the data set with Mouse uteri (treatment alone, 20 days), the “uterine fixed weight over control” value is on record as “increase uterine fixed weight over control”.

Values taken from patent US8323706B2, “Antiestrogenic glyceollins suppress human breast and ovarian carcinoma proliferation and tumorigenesis” (The United States of America, as represented by the …, priority 2005, dated 2012).
